Test results taken from ChEMBL document CHEMBL1201862, “PubChem BioAssay data set” (2004).
Each block holds one compound with its values, some of them ahead of it. The source made the active and inactive calls.

Assays:
[1] = NIH-3T3 fibroblast cytotoxicity, dose response, cytotoxicity control, cell-based, fluorescence, Alamar Blue, secondary assay (AID 2327); format: functional;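 note: NIH-3T3 mouse fibroblasts cultured with fluconazole at 8 µg/mL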
[2] = inhibitors of SNCA 5'UTR-driven reporter translation, confirmation, H4 neuroglioma cells, luminescence (AID 1988); format: functional, cell-based
[3] = biological target: T1, Serine/threonine-protein phosphatase (Candida dubliniensis (strain CD36 / CBS 7987 / NCPF 3949 / NRRLY-17841) (Yeast), UniProt B9W6M3); experiment: calcineurin pathway inhibitors in yeast reporter, dose response, S. cerevisiae, CDRE-lacZ, luminescence, secondary (AID 2388); format: functional, cell-based;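 note: yeast reporter cells carrying a calcineurin-responsive lacZ construct stimulated with calcium chloride; luminescent beta-galactosidase reporter signal in whole cells rather than isolated phosphatase activity; potency for inhibition where a drop in reporter signal means calcineurin blockade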
T1 sequence (B9W6M3 whole entry): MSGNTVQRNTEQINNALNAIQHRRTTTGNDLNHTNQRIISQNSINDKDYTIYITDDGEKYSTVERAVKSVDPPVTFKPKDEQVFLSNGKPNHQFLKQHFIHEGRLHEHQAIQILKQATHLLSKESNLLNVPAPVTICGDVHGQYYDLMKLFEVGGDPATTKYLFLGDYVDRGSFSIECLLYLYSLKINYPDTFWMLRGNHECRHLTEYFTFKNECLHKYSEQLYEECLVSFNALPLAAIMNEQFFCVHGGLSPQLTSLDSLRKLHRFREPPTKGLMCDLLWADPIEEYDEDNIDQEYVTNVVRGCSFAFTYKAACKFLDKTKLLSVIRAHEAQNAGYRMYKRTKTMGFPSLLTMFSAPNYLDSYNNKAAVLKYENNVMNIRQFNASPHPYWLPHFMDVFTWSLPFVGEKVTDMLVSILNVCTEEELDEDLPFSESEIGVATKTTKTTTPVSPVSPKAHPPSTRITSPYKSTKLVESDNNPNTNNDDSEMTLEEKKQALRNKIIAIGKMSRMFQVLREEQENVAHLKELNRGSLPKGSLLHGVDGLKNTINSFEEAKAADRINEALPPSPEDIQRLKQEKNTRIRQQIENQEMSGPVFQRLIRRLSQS

[4] = biological target: Ribosomal protein S6 kinase alpha-3 (Homo sapiens, UniProt P51812); format: functional;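 note: measured within a kinome-wide profiling panel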
[5] = biological target: 5'-AMP-activated protein kinase catalytic subunit alpha-1 (Homo sapiens, UniProt Q13131); format: functional
[6] = biological target: Tyrosine-protein kinase receptor TYRO3 (Homo sapiens, UniProt Q06418); format: functional;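 note: TYRO3 value obtained as one member of a kinome-wide profiling panel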
[7] = biological target: Serine/threonine-protein kinase D3 (Homo sapiens, UniProt O94806); format: functional;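 note: determined within a kinase panel screen, with PRKCN as the panel member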
[8] = biological target: Glycogen synthase kinase-3 alpha (Homo sapiens, UniProt P49840); format: functional;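 note: GSK3A result taken from a broad kinome-wide kinase panel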
[9] = biological target: Mitogen-activated protein kinase kinase kinase kinase 2 (Homo sapiens, UniProt Q12851); format: functional;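 note: measured as one member of a kinome-wide kinase panel, with MAP4K2 as the panel entry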
[10] = biological target: Platelet-derived growth factor receptor beta (Homo sapiens, UniProt P09619); format: functional;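 note: value comes from a kinome panel, with PDGFRB tested as one panel member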
[11] = biological target: Insulin-like growth factor 1 receptor (Homo sapiens, UniProt P08069); experiment: Navigating the Kinome. Panel member name: IGF1R; format: functional
Aurora kinase B = Aurora kinase B (Homo sapiens, UniProt Q96GD4); format: functional
[12] = biological target: Cyclin-dependent kinase 9 (Homo sapiens, UniProt P50750); format: functional;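 note: value from the CDK9 entry of a kinome-spanning kinase panel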
[13] = biological target: cAMP-dependent protein kinase catalytic subunit alpha (Homo sapiens, UniProt P17612); format: functional
[14] = biological target: Macrophage-stimulating protein receptor (Homo sapiens, UniProt Q04912); experiment: Navigating the Kinome. Panel member name: MST1R; format: functional
[15] = biological target: Macrophage colony-stimulating factor 1 receptor (Homo sapiens, UniProt P07333); format: functional;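 note: value comes from the Navigating the Kinome screening panel, CSF1R member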
[16] = biological target: Dual specificity tyrosine-phosphorylation-regulated kinase 1A (Homo sapiens, UniProt Q13627); format: functional;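 note: measured against DYRK1A as one member of a broad kinome profiling panel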
[17] = biological target: T2, Sentrin-specific protease 6 (Homo sapiens, UniProt Q9GZR1); format: functional;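 note: Luminescence-based dose-response confirmatory assay of SENP6 inhibition, following up an ultra-high-throughput screen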
T2 sequence (Q9GZR1 whole entry): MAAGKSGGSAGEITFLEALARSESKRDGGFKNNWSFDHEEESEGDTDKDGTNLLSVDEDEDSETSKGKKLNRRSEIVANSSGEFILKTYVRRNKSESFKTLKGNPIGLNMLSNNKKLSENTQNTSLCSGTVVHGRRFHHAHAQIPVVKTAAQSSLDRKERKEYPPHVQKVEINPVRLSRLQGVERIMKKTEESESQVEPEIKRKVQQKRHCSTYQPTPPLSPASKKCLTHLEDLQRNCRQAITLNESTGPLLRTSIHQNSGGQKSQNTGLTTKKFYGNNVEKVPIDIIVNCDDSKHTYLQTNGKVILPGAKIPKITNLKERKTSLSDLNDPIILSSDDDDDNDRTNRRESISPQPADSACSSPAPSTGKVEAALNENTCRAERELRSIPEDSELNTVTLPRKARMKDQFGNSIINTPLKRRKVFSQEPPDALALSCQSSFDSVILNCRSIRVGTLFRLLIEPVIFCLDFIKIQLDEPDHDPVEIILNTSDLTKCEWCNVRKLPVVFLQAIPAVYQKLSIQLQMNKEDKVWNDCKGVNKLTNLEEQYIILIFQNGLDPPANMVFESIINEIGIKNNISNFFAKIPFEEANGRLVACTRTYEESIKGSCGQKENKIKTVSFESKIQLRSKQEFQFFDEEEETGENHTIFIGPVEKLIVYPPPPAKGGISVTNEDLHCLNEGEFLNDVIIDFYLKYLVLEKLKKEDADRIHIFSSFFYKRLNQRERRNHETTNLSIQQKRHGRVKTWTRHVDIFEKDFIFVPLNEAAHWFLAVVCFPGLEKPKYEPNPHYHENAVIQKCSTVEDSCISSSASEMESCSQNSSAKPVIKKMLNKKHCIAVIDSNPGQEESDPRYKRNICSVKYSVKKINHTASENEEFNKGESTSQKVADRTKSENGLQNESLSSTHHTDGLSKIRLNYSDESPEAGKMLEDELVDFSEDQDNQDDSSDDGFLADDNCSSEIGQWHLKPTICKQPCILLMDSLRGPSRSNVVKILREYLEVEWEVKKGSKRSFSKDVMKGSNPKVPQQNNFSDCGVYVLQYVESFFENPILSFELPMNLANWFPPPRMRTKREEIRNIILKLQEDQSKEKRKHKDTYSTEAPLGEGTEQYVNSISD

Chain of 5'-AMP-activated protein kinase catalytic subunit alpha-1 (Q13131 whole entry): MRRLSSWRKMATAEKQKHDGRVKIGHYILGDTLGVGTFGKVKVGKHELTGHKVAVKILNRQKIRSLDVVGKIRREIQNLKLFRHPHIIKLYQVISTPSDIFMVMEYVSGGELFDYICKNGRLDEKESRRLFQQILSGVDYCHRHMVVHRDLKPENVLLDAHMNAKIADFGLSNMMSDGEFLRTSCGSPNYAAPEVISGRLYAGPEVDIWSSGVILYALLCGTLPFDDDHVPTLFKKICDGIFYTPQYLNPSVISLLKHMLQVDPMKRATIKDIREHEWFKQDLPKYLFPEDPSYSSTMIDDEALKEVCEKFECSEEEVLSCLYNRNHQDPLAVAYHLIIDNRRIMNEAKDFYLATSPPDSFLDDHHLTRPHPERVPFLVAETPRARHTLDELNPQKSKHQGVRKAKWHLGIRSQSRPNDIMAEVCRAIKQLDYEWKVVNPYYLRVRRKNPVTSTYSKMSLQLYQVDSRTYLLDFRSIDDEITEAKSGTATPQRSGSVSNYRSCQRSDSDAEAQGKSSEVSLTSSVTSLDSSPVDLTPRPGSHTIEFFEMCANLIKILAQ
Chain of Serine/threonine-protein kinase D3 (O94806 whole entry): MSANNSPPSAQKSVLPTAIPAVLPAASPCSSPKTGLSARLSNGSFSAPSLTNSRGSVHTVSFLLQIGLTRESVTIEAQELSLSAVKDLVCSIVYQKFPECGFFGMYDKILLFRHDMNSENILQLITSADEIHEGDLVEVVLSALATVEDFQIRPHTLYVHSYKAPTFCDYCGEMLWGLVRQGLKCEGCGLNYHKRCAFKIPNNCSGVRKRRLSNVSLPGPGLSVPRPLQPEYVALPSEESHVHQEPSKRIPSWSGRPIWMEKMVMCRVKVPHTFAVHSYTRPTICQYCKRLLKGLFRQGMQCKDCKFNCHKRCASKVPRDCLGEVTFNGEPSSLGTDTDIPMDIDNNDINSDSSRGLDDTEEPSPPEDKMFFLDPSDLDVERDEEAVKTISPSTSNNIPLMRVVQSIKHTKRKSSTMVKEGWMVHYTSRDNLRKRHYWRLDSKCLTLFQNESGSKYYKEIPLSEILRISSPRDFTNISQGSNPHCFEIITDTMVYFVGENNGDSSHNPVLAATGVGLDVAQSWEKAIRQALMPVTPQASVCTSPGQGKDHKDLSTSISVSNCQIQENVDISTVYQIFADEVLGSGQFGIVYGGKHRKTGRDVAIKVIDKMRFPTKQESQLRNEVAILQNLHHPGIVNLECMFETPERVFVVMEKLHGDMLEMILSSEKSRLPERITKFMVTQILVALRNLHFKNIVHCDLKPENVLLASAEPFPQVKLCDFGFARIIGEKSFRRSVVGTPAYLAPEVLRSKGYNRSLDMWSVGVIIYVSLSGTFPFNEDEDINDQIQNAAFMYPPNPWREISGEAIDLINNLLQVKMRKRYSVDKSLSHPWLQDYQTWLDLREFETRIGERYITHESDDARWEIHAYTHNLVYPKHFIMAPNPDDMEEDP
Chain of Platelet-derived growth factor receptor beta (P09619 whole entry): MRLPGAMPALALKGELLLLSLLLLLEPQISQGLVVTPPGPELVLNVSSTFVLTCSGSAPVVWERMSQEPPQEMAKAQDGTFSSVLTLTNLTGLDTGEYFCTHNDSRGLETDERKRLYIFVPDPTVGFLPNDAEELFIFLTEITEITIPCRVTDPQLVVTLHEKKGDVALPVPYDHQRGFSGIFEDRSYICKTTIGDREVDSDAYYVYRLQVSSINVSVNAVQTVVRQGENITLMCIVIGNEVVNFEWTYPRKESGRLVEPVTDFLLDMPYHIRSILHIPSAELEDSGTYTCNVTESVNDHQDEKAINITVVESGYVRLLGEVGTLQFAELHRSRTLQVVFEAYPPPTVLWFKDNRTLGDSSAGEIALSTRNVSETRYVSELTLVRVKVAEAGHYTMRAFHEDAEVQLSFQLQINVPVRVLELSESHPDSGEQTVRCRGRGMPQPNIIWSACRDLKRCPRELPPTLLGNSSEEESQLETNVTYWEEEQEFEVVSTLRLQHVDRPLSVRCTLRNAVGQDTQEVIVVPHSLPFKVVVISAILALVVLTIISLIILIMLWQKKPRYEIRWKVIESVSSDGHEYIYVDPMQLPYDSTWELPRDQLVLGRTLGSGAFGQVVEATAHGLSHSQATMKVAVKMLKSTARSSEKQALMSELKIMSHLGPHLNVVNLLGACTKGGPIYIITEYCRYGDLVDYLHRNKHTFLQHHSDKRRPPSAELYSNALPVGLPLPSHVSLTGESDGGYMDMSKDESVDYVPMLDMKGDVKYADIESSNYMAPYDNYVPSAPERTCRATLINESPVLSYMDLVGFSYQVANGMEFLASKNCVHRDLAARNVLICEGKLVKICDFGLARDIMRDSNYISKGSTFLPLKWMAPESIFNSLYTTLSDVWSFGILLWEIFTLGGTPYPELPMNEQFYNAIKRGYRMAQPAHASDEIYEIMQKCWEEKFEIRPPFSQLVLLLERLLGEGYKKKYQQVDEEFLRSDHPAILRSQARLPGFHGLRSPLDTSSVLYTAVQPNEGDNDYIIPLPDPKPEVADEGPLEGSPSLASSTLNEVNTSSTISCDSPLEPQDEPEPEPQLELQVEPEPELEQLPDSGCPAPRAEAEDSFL
Chain of Tyrosine-protein kinase receptor TYRO3 (Q06418 whole entry): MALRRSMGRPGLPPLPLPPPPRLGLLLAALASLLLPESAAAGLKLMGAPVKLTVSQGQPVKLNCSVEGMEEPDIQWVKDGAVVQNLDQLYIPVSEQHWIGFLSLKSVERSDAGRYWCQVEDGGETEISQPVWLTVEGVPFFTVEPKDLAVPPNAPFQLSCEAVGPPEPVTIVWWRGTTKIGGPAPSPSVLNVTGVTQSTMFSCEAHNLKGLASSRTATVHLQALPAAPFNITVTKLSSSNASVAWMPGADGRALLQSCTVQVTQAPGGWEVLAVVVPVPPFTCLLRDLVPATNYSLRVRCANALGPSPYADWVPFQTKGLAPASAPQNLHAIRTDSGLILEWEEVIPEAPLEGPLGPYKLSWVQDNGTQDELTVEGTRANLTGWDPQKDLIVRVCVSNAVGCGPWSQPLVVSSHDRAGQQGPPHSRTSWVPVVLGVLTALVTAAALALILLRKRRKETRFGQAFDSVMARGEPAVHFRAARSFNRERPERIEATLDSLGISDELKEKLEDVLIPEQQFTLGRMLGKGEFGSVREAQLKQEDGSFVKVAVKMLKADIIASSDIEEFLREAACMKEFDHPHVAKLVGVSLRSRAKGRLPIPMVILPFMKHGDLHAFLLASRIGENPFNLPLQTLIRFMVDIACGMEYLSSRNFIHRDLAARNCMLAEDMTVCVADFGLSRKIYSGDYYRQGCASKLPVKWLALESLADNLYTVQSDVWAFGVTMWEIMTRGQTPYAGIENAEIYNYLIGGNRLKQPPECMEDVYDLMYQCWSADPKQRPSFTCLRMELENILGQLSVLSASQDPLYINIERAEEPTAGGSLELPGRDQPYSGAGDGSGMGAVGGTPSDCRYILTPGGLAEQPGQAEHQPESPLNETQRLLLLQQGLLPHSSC
Chain of Aurora kinase B (Q96GD4 whole entry): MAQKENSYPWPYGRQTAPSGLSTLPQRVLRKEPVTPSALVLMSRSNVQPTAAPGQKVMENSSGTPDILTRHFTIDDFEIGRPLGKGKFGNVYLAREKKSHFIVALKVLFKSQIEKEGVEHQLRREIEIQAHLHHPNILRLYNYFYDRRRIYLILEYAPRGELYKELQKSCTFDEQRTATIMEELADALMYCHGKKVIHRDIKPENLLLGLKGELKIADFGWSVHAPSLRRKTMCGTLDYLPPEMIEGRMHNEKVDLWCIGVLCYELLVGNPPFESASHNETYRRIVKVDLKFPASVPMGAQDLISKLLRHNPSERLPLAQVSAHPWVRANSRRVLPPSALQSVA
Chain of Glycogen synthase kinase-3 alpha (P49840 whole entry): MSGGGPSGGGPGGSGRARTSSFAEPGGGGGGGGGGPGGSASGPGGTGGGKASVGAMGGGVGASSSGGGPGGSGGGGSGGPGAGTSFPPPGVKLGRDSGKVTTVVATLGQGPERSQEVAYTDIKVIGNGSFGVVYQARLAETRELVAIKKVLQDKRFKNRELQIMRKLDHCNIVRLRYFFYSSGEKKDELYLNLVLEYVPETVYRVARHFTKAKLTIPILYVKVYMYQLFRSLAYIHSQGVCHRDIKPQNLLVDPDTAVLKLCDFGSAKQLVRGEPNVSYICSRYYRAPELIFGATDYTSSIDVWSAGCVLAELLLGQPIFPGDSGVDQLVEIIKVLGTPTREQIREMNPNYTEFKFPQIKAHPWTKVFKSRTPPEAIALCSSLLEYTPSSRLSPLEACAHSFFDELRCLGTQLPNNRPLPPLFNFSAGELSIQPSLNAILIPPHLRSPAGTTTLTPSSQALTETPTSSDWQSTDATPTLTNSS
Chain of Cyclin-dependent kinase 9 (P50750 whole entry): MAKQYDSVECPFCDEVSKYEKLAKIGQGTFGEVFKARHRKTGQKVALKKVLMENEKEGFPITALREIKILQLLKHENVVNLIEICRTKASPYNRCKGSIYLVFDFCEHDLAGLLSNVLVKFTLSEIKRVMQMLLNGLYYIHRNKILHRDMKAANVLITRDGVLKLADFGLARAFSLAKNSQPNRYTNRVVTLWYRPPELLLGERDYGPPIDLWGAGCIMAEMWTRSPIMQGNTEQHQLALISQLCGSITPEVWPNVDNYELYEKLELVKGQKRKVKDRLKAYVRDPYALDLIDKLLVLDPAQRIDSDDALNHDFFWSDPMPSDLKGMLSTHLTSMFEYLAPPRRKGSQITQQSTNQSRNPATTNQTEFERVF

SMILES: CN1CCN(C(c2ccc(C(F)(F)F)cc2)c2cc(Cl)c3cccnc3c2O)CC1 (stereo not drawn)
- EC50 [1]: 10.9 µM (inconclusive)
- EC50 [2]: 8.87 µM (active)
- EC50 [3]: > 180 µM (inactive)

- Ki [4]: > 3.98 µM (inactive)
- Ki [5]: > 3.16 µM (inactive)
- Ki [6]: > 3.16 µM (inactive)
- Ki [7]: > 3.98 µM (inactive)
- Ki [8]: 1.26 µM (active)
- Ki [9]: > 2.51 µM (inactive)
- Ki [10]: > 2 µM (inactive)
- Ki [11]: > 2.51 µM (inactive)
- Ki (Aurora kinase B): > 3.98 µM (inactive)
- Ki [12]: > 1.58 µM (inactive)
- Ki [13]: 0.0316 µM (active)
- Ki [14]: > 3.98 µM (inactive)
- Ki [15]: > 2.51 µM (inactive)
- Ki [16]: > 2 µM (inactive)
SMILES: O=C(NC(CCO)c1ccccc1)c1ccc(-c2ccncc2)cc1 (stereo not drawn)

SMILES: NC(=O)c1c(NC(=O)c2cc3ccccc3o2)sc2c1CCC2
- IC50 [17]: 17.2 µM (active)
